Data on eight molecules can be found in article PMC5491917, “In vitro and in vivo anticancer studies of 2'-hydroxy chalcone derivatives exhibit apoptosis in colon cancer cells by HDAC inhibition and cell cycle arrest” (EXCLI Journal, 2017).

The test system of experiment [1] is histone deacetylase (HDAC) enzyme. The experiment can be described thus: Whole cell HDAC enzyme assay. It counts as cell-based, human. The conditions noted are these: HCT116 cells. On the procedure: HCT116 cells were harvested and seeded in 96 well sterile, black well plates at 2 × 10^4 cells/well and incubated overnight. Further, the cells were treated with different concentration of the test compounds for a period of 18 h. Then, 15 mM Boc-Lys(Ac)-AMC substrate (Sigma Aldrich # SCP0168) was added and incubated for 1 h. The reaction was terminated by the addition of 50 µL of stop solution (trypsin 2 mg/ml, 1 % NP40, […]) in HDAC assay buffer (25 mM Tris-HCl (pH 8.0), 137 mM NaCl, 2.7 mM KCl, 1 mM MgCl2). The reaction was then allowed to proceed for 15 min at 37 °C after which, the fluorescence was measured at 360 nm excitation and 460 nm emission using fluorescence micro plate reader (FLx800, BioTek Instruments Inc., Winooski, VT, USA) (Reddy et al., 2015[18]).

Experiment [2] has as its system HCT116 cells. Briefly: Cell cycle analysis (propidium iodide, flow cytometry). It counts as cell-based, human. The note with it: HCT116, 48 h treatment; for Cells in G2/M phase (M3): normal control 18.2 %. How it is done: The ability of the test compounds to arrest any phase of the cell cycle was determined using the described procedure (Reddy et al., 2015[18]). In this method, HCT116 cells were harvested and seeded at a density of 1 × 10^6 cell in 60 mm petri plate and incubated for 24 h. After 24 h cells were treated with test compounds for 48 h. Then the cells were washed with PBS, trypsinized and centrifuged. The cell pellets were later fixed in 70 % ice cold ethanol and stored at -20 °C for 24 h. After fixing, the pellet was dislodged in PBS and stained with propidium iodide solution. The cells were then analyzed using Accuri C6 flow cytometer with the threshold levels adjusted to remove the debris (BD Biosciences, San Jose, CA, USA) and data analysis were performed using BD Accuri™ C6 software.
(Flow cytometry measures light scatter and fluorescence of single cells or particles in a stream.)

The test system of experiment [3] is HCT116 cells. The experiment can be described thus: Annexin V assay (Muse Cell Analyzer). Type of experiment: cell-based, human. The conditions noted are these: HCT116, 48 h; 5-FU 20 μM, C1 25 μM, C2 70 μM, C3 70 μM. How it is done: Apoptosis determination by Annexin V staining was carried out using Muse Cell Analyzer with the kit provided by the manufacturer Merck Millipore. In brief, 1 × 10^6 cells were seeded in 60 mm tissue culture dish and after overnight adherence test compounds were added and incubated. After 48 h the cells were detached by trypsinization, centrifuged and resuspended. 100 µl of cell suspension was added with 100 µl of Annexin V reagent and incubated for 20 min at room temperature following which the cells were analyzed for apoptosis.

Experiment [4] relates to DMH induced colorectal carcinoma. The experiment can be described thus: DMH (1,2-dimethyl hydrazine) induced colon cancer in Wistar rats. Type of experiment: in vivo. The conditions noted are these: test compounds 100 mg/kg p.o., 5-FU 10 mg/kg i.p., 21 days; for TNF-α level in colon homogenate: ELISA, DMH control 20.2 ± 0.8, normal control 0.8 ± 0.1; for No. of ACF/5 cm^2: colon tissue, DMH control 81.6 ± 1.4; for No. of ACF/5 cm^2 / No. of adenocarcinoma: mean ± SEM, n=6; for No. of adenocarcinoma: entire colon, DMH control 15 ± 1.2. On the procedure:
Test compound: Three test compounds, namely C1, C2 & C3 were suspended in 0.25 % sodium carboxy methyl cellulose (CMC) and were administered orally (p.o) with a dosing volume of 10 ml/kg.
Standard drug: 5-Fluorouracil (5-FU) was used as standard. It was procured in the form of injection and administered intraperitoneally (i.p) with a dosing volume of 10 ml/kg.
Induction of colon cancer was achieved using DMH according to a previously described procedure with few modifications (Perše and Cerar, 2005[15]). DMH at a dose of 30 mg/kg was administered i.p once a week for 20 weeks. The incidence of aberrant crypt foci (ACFs) and adenocarcinoma were confirmed by sacrificing a few of the animals after 20 weeks confirming the induction of colon cancer in experimental animals. Finally, the animals were randomized into five experimental groups based on their body weight.
Group 1 (normal control): Animals (n=6) were administered 0.25 % CMC in water p.o.
Group 2 (DMH control): Animals (n=6) were administered DMH
Group 3 (standard drug): Animals (n=6) received 5-FU 10 mg/kg i.p. for 21 days of study period
Group 4 (C1): Animals (n=6) received C1 at 100 mg/kg p.o for 21 days
Group 5 (C2): Animals (n=6) received C2 at 100 mg/kg p.o. for 21 days.
Group 6 (C3): Animals (n=6) received C3 at 100 mg/kg p.o. for 21 days.
The distal part of the colon, which was removed from the experimental animals after the study period was cut open and placed flat on a filter paper and fixed with 10 % buffered formalin for 12 h. Further, it was stained with 0.1 % methylene blue in PBS for 5 min. Specimens were later observed under microscope for ACF formation and were calculated as the number of counts/5 cm^2 in colon tissue. The entire colon was considered to study the incidence of adenocarcinoma. The growth was critically observed and the count and size were noted from each animal.
The levels of TNF-α were estimated in the colon of experimental animals, for which 10 % homogenate of colon tissue was prepared in tissue lysis buffer. The homogenate was centrifuged and the supernatant was collected to measure TNF-α levels using commercially available ELISA kits of rat TNF-α (# KRC3011, Invitrogen).
Length of the isolated colon was measured in centimeters and weight was measured in g. The colon length/weight (L/W) ratio was then calculated. Isolated spleen, kidney and heart of the experimental animals were also weighed in g and respective index was calculated.
Histopathology was carried out according to the described procedure (Reddy et al., 2015[18]). The stained slides were then analyzed under a microscope for any anatomical changes.
All the values were expressed as mean ± SEM of 6 animals. Data were analyzed using one-way ANOVA followed by Tukey's multiple comparison tests using Prism 5.03 (Graph Pad Software Inc., La Jolla, CA, USA). Values of p < 0.05 were considered to be significant.

The subject of a further experiment is Vero cells. The experiment can be described thus: MTT cytotoxicity assay on Vero. Type of experiment: cell-based, African green monkey. The note with it: Chlorocebus sabaeus, 48 h exposure. On the procedure: (§1) Human colorectal carcinoma (HCT116) and African green monkey kidney epithelial cells (VERO) were procured from the National Centre for Cell Science, Pune, MH, India. The cells were maintained in Dulbecco's Modified Eagle's Medium (DMEM) (Sigma-Aldrich Co. LLC, ST. Louis, Mo, USA) supplemented with 10 % Fetal Bovine Serum (FBS) (HiMedia Laboratories, Mumbai, India) and 1 × Penicillin/Streptomycin at 37 °C in CO2 incubator (NU-5501 E/G, NuAire Inc., Plymoth, MN, USA) in humidified atmosphere of 5 % CO2 and 95 % air. The cells were maintained by routine sub-culturing in 25 cm^2 tissue culture flasks.
(§2) Cytotoxic potential of the test compounds were assessed using MTT assay (Kumar et al., 2016[9]). In brief, HCT116 and Vero cells were harvested from confluent flask and seeded (5 × 10^4 cells/well) in 96 well plates. After 24 h of incubation, the cells were exposed to different concentration of the test compounds for 48 h. Further, 50 µl of MTT reagent (HiMedia Laboratories, Mumbai, India) (2 mg/ml in sterile PBS) was added into each well after 48 h and incubated for 3 more h. The formazan crystals formed were solubilized using 100 % DMSO and the optical density was measured at 540 nm using micro plate reader (ELx800, BioTek Instruments Inc., Winooski, VT, USA).

The subject of experiment [5] is HCT116 cells. Briefly: Acridine orange/Ethidium bromide (AO/EB) staining. It counts as cell-based, human. The conditions noted are these: HCT116, 48 h, mean ± SEM of 100 cells. On the procedure: AO/EB dual staining was performed in order to determine the apoptosis inducing potential of the selected test compounds in HCT116 cell line with few modifications (Kumar et al., 2016[9]). In brief, 5 × 10^5 cells were seeded in 6 wells plate containing 2 ml of medium and incubated for 24 h. After 24 h, cells were treated with the test compounds and incubated for 48 h. After 48 h of incubation, the wells were washed with phosphate buffer saline (PBS) and cells were fixed with ice cold ethanol (70 %) for 30 min. Ethanol was then removed and cells were washed again with PBS followed by the addition of 200 µl of AO/EB (20/30 µg/ml) stain in each well. The plate was later kept in the dark for 20 min. The excess stain was further washed thrice with PBS and observed for their fluorescence under a fluorescent microscope (Eclipse TS100-F, Nikon Instruments Inc., Melville, NY, USA).

Experiment [6] has as its system HCT116 cells. Briefly: MTT cytotoxicity assay on HCT116. Type of experiment: cell-based. The conditions noted are these: Homo sapiens. How it is done: as §1, §2
(Formazan colour is commonly taken as a measure of viable cells.)

The mark [7] stands for this setting: 18 h treatment, mean ± SEM, triplicate, read-out: IC50 whole cell HDAC enzyme inhibition.
The mark [8] stands for this setting: read-out: IC50 inhibition of HDAC (unit inferred).
The mark [9] stands for this setting: HCT-116, 48 h exposure, read-out: IC50 Value HCT116.
[10] abbreviates: HCT-116, 48 h of treatment, read-out: IC50 value on HCT116 cells.

Broadly, the IC50 is the concentration that inhibits the measured activity by half.

Structures are written as SMILES. Read-outs that look alike come from different tables or passages of the source. Some results are limits rather than exact numbers.

For the molecule `Cc1ccc(/C=C/C(=O)c2ccccc2O)cc1` [C1, 1-(2-Hydroxy-phenyl)-3-p-tolyl-propenone], the half-maximal inhibitory concentration (IC50) in experiment [1] (setting [7]) stood at 105 µM. In addition, the IC50 in experiment [1] (setting [8]) is below 500 µM. In addition, the “Cells in G2/M phase (M3)” value in the experiment on HCT116 cells [2] is reported as 25%. Also, in the experiment on HCT116 cells [3], the “Early Apop. (Annexin V)” value is 5.85% and the “Total apoptotic cells (Annexin V)” value is on record as 37.70 % of total cells. Besides, in experiment [4], the “TNF-α level in colon homogenate” value is on record as 6.18 ± 2.5, the “No. of ACF/5 cm^2” value is 54.0 ± 0.5 /5 cm^2 and the No. of adenocarcinoma is 10 ± 0.8. The same molecule registered an IC50 with Vero cells of 26.3 µM. For the same molecule, the “% apoptotic cells (AO/EB staining)” value in the experiment with HCT116 cells [5] is listed as 42.4 ± 2.25%.
As for `O=C(CCCCCCC(=O)Nc1ccccc1)NO` [SAHA, reference compound], the 50% inhibitory concentration (IC50) in experiment [1] (setting [7]) was found to be 3.6 ± 0.2 µM.
For `O=C(/C=C/c1ccc(O)cc1)c1ccccc1O` [C2, 3-(4-Hydroxy-phenyl)-1-(2-hydroxy-phenyl)-propenone], the IC50 in experiment [1] (setting [7]) is 394 ± 12.9 µM; in experiment [1] (setting [8]), below 500 µM; in the experiment on Vero cells, 88.3 µM; with HCT116 cells [6] (setting [9]), 81.4 µM; in the experiment on HCT116 cells [6] (setting [10]), below 200 µM. For the same molecule, the “Cells in G2/M phase (M3)” value with HCT116 cells [2] is given as 19.5%. Moreover, the “Early Apop. (Annexin V)” value in the experiment with HCT116 cells [3] is 18%. Also, the “Total apoptotic cells (Annexin V)” value in the experiment on HCT116 cells [3] is 36.60 % of total cells. Also, in experiment [4], the “No. of ACF/5 cm^2” value is listed as 60.0 ± 1.1 /5 cm^2. The “% apoptotic cells (AO/EB staining)” value with HCT116 cells [5] turned out to be 40 ± 2.5%.
As to `CN(C)c1ccc(/C=C/C(=O)c2ccc(O)cc2O)cc1` [C5], the concentration for half-maximal inhibition (IC50) is 160 ± 15.5 µM in experiment [1] (setting [7]) and below 500 µM in experiment [1] (setting [8]).
On to `O=C(O)c1ccc(C=CC(=O)c2c(O)cccc2O)cc1` [C6, 4-[3-(2,6-Dihydroxy-phenyl)-3-oxo-propenyl]-benzoic acid], for which the IC50 in experiment [1] (setting [7]) was 826 ± 58.1 µM; with Vero cells, above 500 µM; with HCT116 cells [6] (setting [9]) it was above 500 µM.
Take `O=c1[nH]cc(F)c(=O)[nH]1` [5-FU, 5-Fluorouracil, reference compound]: in the experiment with HCT116 cells [3], the “Early Apop. (Annexin V)” value is recorded as 15.86% and the “Total apoptotic cells (Annexin V)” value was 38.08 % of total cells. In experiment [4], the “TNF-α level in colon homogenate” value was 16.09 ± 1.9, the “No. of ACF/5 cm^2” value is on record as 42.3 ± 1.4 /5 cm^2 and the No. of adenocarcinoma was 7 ± 0.5. In addition, in the experiment on HCT116 cells [5], the “% apoptotic cells (AO/EB staining)” value worked out at 45 ± 0.87%.
With `O=C(O)c1ccc(C=CC(=O)c2ccccc2O)cc1` [C3, 4-[3-(2-Hydroxy-phenyl)-3-oxo-propenyl]-benzoic acid], the IC50 in experiment [1] (setting [7]) is 929 ± 56.6 µM; with Vero cells it was 178 µM; in the experiment on HCT116 cells [6] (setting [9]), 117 µM; in the experiment with HCT116 cells [6] (setting [10]) it was below 200 µM. In addition, the “Cells in S phase (M2)” value with HCT116 cells [2] (normal control 9.5 %) was found to be 12%. In addition, in the experiment with HCT116 cells [3], the “Total apoptotic cells (Annexin V)” value is 31.80 % of total cells. Further, the “No. of ACF/5 cm^2” value in experiment [4] is 73.6 ± 0.8 /5 cm^2. The “% apoptotic cells (AO/EB staining)” value with HCT116 cells [5] turned out to be 38.7 ± 0.94%.
Turning to `CN(C)c1ccc(/C=C/C(=O)c2ccccc2O)cc1` [C4, 3-(4-Dimethylamino-phenyl)-1-(2-hydroxy-phenyl)-propenone], the IC50 was 470 ± 11 µM in experiment [1] (setting [7]); below 500 µM in experiment [1] (setting [8]); above 500 µM with Vero cells; above 500 µM in the experiment with HCT116 cells [6] (HCT-116, 48 h, 48 h exposure, read-out: IC50 Value HCT116).
